Assay results published in patent US9718781B2, “Methods and compounds for treating proliferative disorders and viral infections” (University College Dublin, National University of Ireland, …, priority 2012, dated 2017).
“And” between values parts separate entries of the source, which are not always exact repeats. Equal entries are not always repeated. Where two headings read alike, the source gives them in different places.

Assays:
TPα = target: T1, TPα (Homo sapiens, UniProt P21731); test: U46619-induced [Ca2+]i mobilization in HEK.TPα cells; format: cell-based; settings: for IC50: HEK.TPα cells, 1 μM U46619, Table 2, read-out: IC50 data for U46619-mediated [Ca2+]i mobilization, TPα; for TPα:TPβ Selectivity Ratio: IC50 TPα/IC50 TPβ
T1 construct: expressed in transfected cells
T1 sequence (P21731 1-343): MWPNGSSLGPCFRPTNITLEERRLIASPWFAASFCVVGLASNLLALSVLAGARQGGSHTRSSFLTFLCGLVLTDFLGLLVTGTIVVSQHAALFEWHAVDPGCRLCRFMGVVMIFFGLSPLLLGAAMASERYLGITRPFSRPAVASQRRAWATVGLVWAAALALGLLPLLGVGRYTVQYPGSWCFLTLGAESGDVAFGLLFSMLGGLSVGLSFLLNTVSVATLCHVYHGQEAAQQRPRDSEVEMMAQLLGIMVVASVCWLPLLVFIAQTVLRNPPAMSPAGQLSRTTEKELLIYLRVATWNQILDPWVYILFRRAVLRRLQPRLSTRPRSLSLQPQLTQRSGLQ
Procedure, shortened: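 HEK293 cells loaded with 3 μM Fluo-4 (1 h, 25° C.) in Krebs-HEPES pH 7.4, then pre-incubated with compound for 10 min. Fluorescence at 520 nm tracked after injection of 1 μM U46619. Signal calibrated by Fmax (2% Triton X100) and Fmin (1 mM EGTA).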

TPβ = target: T2, TPβ (Homo sapiens, UniProt P21731); test: U46619-induced [Ca2+]i mobilization in HEK.TPβ cells; format: cell-based; settings: HEK.TPβ cells; 1 μM U46619; Table 2; read-out: IC50 data for U46619-mediated [Ca2+]i mobilization, TPβ
T2 construct: expressed in transfected cells
Procedure, shortened: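 Fluo-4-loaded (3 μM, 1 h, 25° C.) HEK293 TPβ cells in KREBs-HEPES pH 7.4, pre-incubated 10 min with test compound, then stimulated with 1 μM U46619. Fluorescence at 520 nm followed for 75 s, calibrated by Fmax (2% Triton X100) and Fmin (1 mM EGTA).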

human platelets [1] = test: U46619-induced human platelet aggregation ex vivo (platelet rich plasma); format: cell-based; settings: human platelets ex vivo, Table 3, read-out: IC50 data for inhibition of U46619-induced platelet aggregation
Source text: A modification of the turbidimetric method originally developed by Born & Cross (Born, G. V. and Cross, M. J., The Aggregation of Blood Platelets, J Physiol, 1963, 168:178-95) is used. The principle is based on the diffraction of the light by particles. When a light beam passes through a suspension of particles, it is diffracted, depending on the number and the size of the particles in suspension.
In the Born & Cross method, a light beam passes through a platelet suspension and the quantity of light is measured by a detector placed after the sample. Upon platelet aggregation, the size of platelet aggregates will increase while the total number of free platelets will decrease. Consequently, less light will be diffracted and the detector will record an increase in light intensity. The aggregometer has been developed based on these concepts. Variations in light transmission recorded by this device reflects the platelet physiology. When an agonist of platelet aggregation is added to a platelet suspension, platelets undergo activation and shape change. This step is characterized by an increase in platelet's apparent volume and thus a decrease of transmitted light. Subsequent platelet aggregation gradually forms aggregates of increasing size. Transmitted light slightly increases until a plateau is reached. The aggregation of platelet can be confirmed after the experiment by visual direct inspection of the test tube.
Preparation of platelet suspension is achieved by blood centrifugation at 160 g for 10 minutes. The PRP is re-centrifuged at 160 g for 10 min to remove contaminating red and white blood cells. The supernatant which is collected contains the platelets rich plasma (PRP). The remaining blood is subsequently centrifuged at 900 g for 15 min in order to retrieve plasma (platelets poor plasma, PPP). PRP is diluted with PPP to reach a final concentration of 150×10^3 […] PRP is kept warmed at 37° C. in the aggregometer and the adequate dilution of drug to test is introduced in the sample. Platelet aggregation is induced after 10 minutes incubation. Light transmission (T) is measured throughout the experiment, which is ended 8 minutes after induction of aggregation. Maximal light transmission (Tmax) is determined in the sample without drugs. Minimal light transmission (Tmin) is measured in PRP without inducer.
The effect of NTP4 and the previously identified lead TP antagonist, TP20, on U46619-mediated platelet aggregation in side-by-side comparisons was performed in platelet rich plasma (PRP) using the PAP-8E platelet aggregometer.
FIG. 4A-4C show the effect of TP20 & NTP4 on U46619-mediated platelet aggregation. PRP was prepared from blood taken from healthy volunteers into syringes containing 3.8% sodium citrate and 10 μM indomethacin such that the final ratio of anticoagulant to blood was 1:9. Aliquots of PRP (300 μl) were pre-incubated for 10 min with the TP antagonists, TP20 and NTP4, where 2-fold serial dilutions from 1 μM were prepared for each, prior to stimulating platelets with 1 μM U46619, incubated at 37° C., with stirring. FIG. 4A and FIG. 4B: Representative dose-response platelet aggregation profiles for TP20 (FIG. 4A) and NTP4 (FIG. 4B), where data is presented as Percentage Aggregation, as determined by changes in light transmission using the PAP-8E Platelet Aggregation Profiler as a function of time. FIG. 4C: The dose-response curves for platelet aggregation are presented as the mean (±S.E.M.) maximum Percentage Aggregation as a function of the log of the TP antagonist concentration. Data presented is representative of ≧6 independent experiments.

[2] = system: A/Puerto Rico/8/1934 (H1N1) influenza A virus; format: in vivo, BALB/c mice
human platelets [3] = test: ADP-induced platelet aggregation of human platelets ex vivo; format: cell-based
Source text: (§1) The method of assessing platelet aggregation also allows evaluation of the effect of the compounds of the invention on platelet aggregation upon stimulation by other agonists, e.g., adenosine diphosphate (ADP) and thrombin.

human platelets [4] = test: Thrombin-induced platelet aggregation of human platelets ex vivo; format: cell-based
Source text: as §1

[5] = lung, Day 4, Tamiflu 10 mg/kg, TP20 0.36 mg/kg
[6] = lung, Day 4, number of animals of 3

T2 sequence (P21731 1-407 isoform P21731-2): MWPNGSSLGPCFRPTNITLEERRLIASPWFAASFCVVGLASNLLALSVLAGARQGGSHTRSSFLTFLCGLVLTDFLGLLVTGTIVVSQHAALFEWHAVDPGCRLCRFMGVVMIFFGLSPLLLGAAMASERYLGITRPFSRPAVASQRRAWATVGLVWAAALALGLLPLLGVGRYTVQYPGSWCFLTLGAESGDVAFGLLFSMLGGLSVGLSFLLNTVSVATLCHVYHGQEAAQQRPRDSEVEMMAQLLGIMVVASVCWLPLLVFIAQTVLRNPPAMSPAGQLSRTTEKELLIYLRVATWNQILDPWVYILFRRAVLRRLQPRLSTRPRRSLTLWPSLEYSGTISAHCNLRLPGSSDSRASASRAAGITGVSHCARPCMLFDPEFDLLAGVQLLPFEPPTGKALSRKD

## COc1cccc(Oc2ccc([N+](=O)[O-])cc2S(=O)(=O)NC(=O)NC(C)(C)C)c1 [Compound 9h, reference compound]
TPα
  IC50: 0.612 µM
  TPα:TPβ Selectivity Ratio: 2.3
TPβ
  IC50: 0.27 µM
Human platelets [1]; Homo sapiens, Platelet
  IC50: 0.513 µM

## O=C(O)CCC/C=C\CC1C2CCC(O2)C1CNNC(=O)Nc1ccccc1 (stereo not shown) [SQ29,548, reference compound]
Human platelets [1]; Homo sapiens, Platelet
  IC50: 0.00833 µM

## CCOC(=O)C1=C[C@@H](OC(CC)CC)[C@H](NC(C)=O)[C@@H](N)C1 [Tamiflu]
[2]; Tamiflu 10 mg/kg, TP20 360 μg/kg, 14 days
  survival over the study: survived the full duration
[2]; lung, Day 4, 3 animals
  Alveolar Acute Inflammation, number of animals with the finding: (1)
  Bronchiolar Erosion, number of animals with the finding: (3)
  Bronchiolar Exudate, number of animals with the finding: (3)
  Bronchiolar acute Inflammation, number of animals with the finding: (3)
  Vascular Necrosis, number of animals with the finding: (0)
[2]; [5]
  Extent of Perivascular Edema (Mean ± S.E.M.), Per Animal: 21.2 ± 1.71 (52) arbitrary units and 20.7 ± 1.21 (66) arbitrary units and 19.3 ± 1.24 (77) arbitrary units
  Extent of Perivascular Edema (Mean ± S.E.M.), Per Treatment Group: 20.6 ± 0.90 arbitrary units
  reduction in the perivascular edema compared to vehicle: does not reduce the extent of perivascular edema
[2]; [6]
  Alveolar Acute Inflammation, Minimal: 1
  Bronchiolar Erosion, Mild: 2
  Bronchiolar Erosion, Minimal: 0
  Bronchiolar Erosion, Moderate: 1
  Bronchiolar Exudate, Mild: 2
  Bronchiolar Exudate, Minimal: 1
  Bronchiolar Exudate, Moderate: 0
  Bronchiolar acute Inflammation, Mild: 3
  Bronchiolar acute Inflammation, Minimal: 0
  Perivascular Edema, Mild: 1
  Perivascular Edema, Minimal: 1
[2]; mouse, in vivo
  Day of Minimum Body Weight Recorded, Mean (Mean Day to Recovery): 8.4
  Day of Minimum Body Weight Recorded, per animal: 9 (7×) and 7 (3×)
  Perivascular Edema, number of animals with the finding: (2)
[2]; n = 10/group
  Weight @ Day 0: 17.56 ± 0.18
  Weight @ Day 14: 17.4 ± 0.32

## CC(C)(C)NC(=O)NS(=O)(=O)c1cc([N+](=O)[O-])ccc1Oc1cccc(-c2ccc(C(F)(F)F)cc2)c1 [XII]
TPα
  IC50: 0.0898 µM
  TPα:TPβ Selectivity Ratio: 1
TPβ
  IC50: 0.086 µM
Human platelets [1]; Homo sapiens, Platelet
  IC50: 0.129 µM
Human platelets [3]
  effect on ADP-induced platelet aggregation: did not affect
Human platelets [4]
  effect on thrombin-induced platelet aggregation: did not affect

## Cc1ccc(-c2cccc(Oc3ccc([N+](=O)[O-])cc3S(=O)(=O)NC(=O)NC(C)(C)C)c2)cc1 [XLI]
TPα
  IC50: 0.106 µM
  TPα:TPβ Selectivity Ratio: 6.4
TPβ
  IC50: 0.0165 µM
Human platelets [1]; Homo sapiens, Platelet
  IC50: 0.23 µM
Human platelets [3]
  effect on ADP-induced platelet aggregation: did not affect
Human platelets [4]
  effect on thrombin-induced platelet aggregation: did not affect

## COC(=O)c1ccc(-c2cccc(Oc3ccc([N+](=O)[O-])cc3S(=O)(=O)NC(=O)NC(C)(C)C)c2)cc1 [XLVI]
TPα
  IC50: 0.114 µM
  TPα:TPβ Selectivity Ratio: 3
TPβ
  IC50: 0.0365 µM
Human platelets [1]; Homo sapiens, Platelet
  IC50: 0.00412 µM
Human platelets [3]
  effect on ADP-induced platelet aggregation: did not affect
Human platelets [4]
  effect on thrombin-induced platelet aggregation: did not affect

## CC(=O)c1ccc(-c2cccc(Oc3ccc([N+](=O)[O-])cc3S(=O)(=O)NC(=O)NC(C)(C)C)c2)cc1 [XLV]
TPα
  IC50: 0.186 µM
  TPα:TPβ Selectivity Ratio: 5.5
TPβ
  IC50: 0.0337 µM
Human platelets [1]; Homo sapiens, Platelet
  IC50: 0.159 µM
Human platelets [3]
  effect on ADP-induced platelet aggregation: did not affect
Human platelets [4]
  effect on thrombin-induced platelet aggregation: did not affect

## N-(tert-butylcarbamoyl)-2-(3-methoxyphenoxy)-5-nitrobenzenesulfonamide [Compound 9ag, reference compound]
TPα
  IC50: 1.75 µM
  TPα:TPβ Selectivity Ratio: 4.5
TPβ
  IC50: 0.379 µM
Human platelets [1]
  IC50: 0.985 µM
